This passage reports photoluminescence quantum yield results from the Deep4Chem optical property database.

“And” between values parts separate entries of the source, which are not always exact repeats. Equal entries are not always repeated.

This data set is described as follows: photoluminescence quantum yield (fraction); solvent given as SMILES.

For `CC(C)CCC[C@@H](C)[C@H]1CC[C@H]2[C@@H]3CC=C4C[C@@H](OC(=O)Oc5cc(/C=C/c6ccc(N(C)C)cc6)ccc5[N+](=O)[O-])CC[C@]4(C)[C@H]3CC[C@]12C`, the photoluminescence quantum yield came out at 0.29 (in C1CCCCC1), 0.09 (in C1COCCO1), 0.29 (in CCCCCCC) and 0.18 (in Cc1ccccc1).

As for `COc1ccc(/C=C/C2=NC(=C\c3ccncc3)/C(=O)N2C)cc1`, the photoluminescence quantum yield runs as follows: (in C1COCCO1) 0.005; (in CC#N) 0.0026; (in CCO) 0.0027; (in CCOC(C)=O) 0.003; (in O) 0.0029.

With `CCCCCCOc1ccc(N(c2ccc(OCCCCCC)cc2)c2ccc(-c3sc(-c4ccc(N(c5ccc(OCCCCCC)cc5)c5ccc(OCCCCCC)cc5)cc4)c4nc(-c5ccc(C(=O)OC)cc5)c(-c5ccc(C(=O)OC)cc5)nc34)cc2)cc1`, the photoluminescence quantum yield runs as follows: (in CN(C)C=O) 0.021; (in ClC(Cl)Cl) 0.026.

As to `Cc1cc(-c2nc(-c3ccccc3)nc(-c3ccccc3)n2)ccc1-n1c2ccccc2c2cc3c(cc21)C1c2ccccc2C3c2ccccc21`, the photoluminescence quantum yield is, setting by setting: (in Cc1ccccc1) 0.6; (in O=P(c1ccccc1)(c1ccccc1)c1ccccc1Oc1ccccc1P(=O)(c1ccccc1)c1ccccc1) 0.32.

Take `CCCCCCN1C(=O)c2cccc3c(-c4ccc(-c5ccc6c7c(cccc57)C(=O)N(CCCCCC)C6=O)s4)ccc(c23)C1=O`: the photoluminescence quantum yield (in ClC(Cl)Cl) amounted to 0.15.

Take `Cc1c2c(c(C)c3ccccc13)C1=C2C=CC2Nc3ccccc3NC12` (centres undefined): the photoluminescence quantum yield (in ClC(Cl)Cl) stood at 0.74.

As to `CC1=CC(c2ccc3ccccc3c2)=[O+][B-]2(OC(=O)C(=O)O2)O1`, the photoluminescence quantum yield by setting is: (in CC#N) 0.03; (in ClC(Cl)(Cl)Cl) 0.06.

In the case of `Cc1ccc(/C=C(\c2ccccc2)c2nc3ccccc3o2)cc1`, the photoluminescence quantum yield was 0.008 (in C1CCCCC1) and 0.004 (in CO).

Under “in Cc1ccccc1”, `CC(C)(C)c1ccc2c(c1)B1c3cc(C(C)(C)C)ccc3Oc3cc(-n4c5ccccc5c5c6c(c7ccccc7n6-c6ccccc6)c6c(c7ccccc7n6-c6ccccc6)c54)cc(c31)O2` yielded a photoluminescence quantum yield of 0.99.

`COc1cc(OC)cc(C2=C3C(C)=C(I)C(/C=C/c4c[nH]c5ccccc45)=[N+]3[B-](F)(F)n3c(/C=C/c4c[nH]c5ccccc45)c(I)c(C)c32)c1` showed a photoluminescence quantum yield (in C1CCOC1) of 0.12, a photoluminescence quantum yield (in CS(C)=O) of 0.1 and a photoluminescence quantum yield (in ClCCl) of 0.15.

Consider `c1ccc(CO[Si]23n4c5c6ccccc6c4/N=C4N=C(/N=c6/c7ccccc7c(n62)=c2c6ccccc6c(n23)=N5)c2ccccc2\4)cc1` (centres undefined), for which, where the note is “in CN(C)C=O”, the photoluminescence quantum yield was determined as 0.24.

Regarding `Cc1ccc(/C2=C3N=C(C(c4ccccc4)=C/3c3ccccc3)/C(c3ccc(C)cc3)=c3\[nH]/c(c(-c4ccccc4)c3-c3ccccc3)=C(/c3ccc(C)cc3)C3=N/C(=C(/c4ccc(C)cc4)c4[nH]c2c(-c2ccccc2)c4-c2ccccc2)C(c2ccccc2)=C3c2ccccc2)cc1`, the photoluminescence quantum yield (in ClCCl) was found to be 0.008.

As to `CC(C)(C)c1ccc2ccc3cc(-c4ccc5c(-c6ccc7c(ccc8ccc(C(C)(C)C)cc87)c6)cc6c7cc(-c8ccc9c(ccc%10ccc(C(C)(C)C)cc%109)c8)ccc7c(-c7ccc8c(ccc9ccc(C(C)(C)C)cc98)c7)cc6c5c4)ccc3c2c1`, the photoluminescence quantum yield (in ClCCl) is 0.781.

Under “in ClCCl”, `F[B-]1(F)OC(C#Cc2ccccc2)=C2CCc3ccccc3C2=[O+]1` returned a photoluminescence quantum yield of 0.83.

For the compound `C(#Cc1ccccc1)C(C#Cc1ccccc1)=Cc1ccc(C=C(C#Cc2ccccc2)C#Cc2ccccc2)s1`, the photoluminescence quantum yield (in ClC(Cl)Cl) was 0.09 and 0.08.

With `N#CC1N=c2cc3c4c(cccc4c2=NC1C#N)C(c1ccccc1)=C(c1ccccc1)O3` (centres undefined), for the setting “in ClCCl”, the photoluminescence quantum yield amounted to 0.17.

In turn, `c1cc2c3c(cccc3c1)C(N1CCOCCOCCN(C3=Nc4cccc5cccc3c45)CCOCC1)=N2` registered a photoluminescence quantum yield (in CC#N) of 0.0051.

`c1ccc(-c2cc3cccc[n+]3[b-]3ccc(-c4cc[b-]5c(c4)c(-c4ccccc4)cc4cccc[n+]54)cc32)cc1` had a photoluminescence quantum yield (in C1CCCCC1) of 0.16.

In the case of `COc1ccc(C#Cc2c3cc4ccccc4cc3c(C#C[Si](C(C)C)(C(C)C)C(C)C)c3cc4ccccc4cc23)cc1`, under “in ClCCl”, the photoluminescence quantum yield turned out to be 0.05.

Regarding `CCCCC(CC)CN1C(=O)C2=C(c3ccc(-c4ccc(C5=C6C(C)=CC(C)=[N+]6[B-](F)(F)n6c(C)cc(C)c65)cc4)s3)N(CC(CC)CCCC)C(=O)C2=C1c1ccc(-c2ccc(C3=C4C(C)=CC(C)=[N+]4[B-](F)(F)n4c(C)cc(C)c43)cc2)s1` (centres undefined), the photoluminescence quantum yield (in Cc1ccccc1) stood at 0.45.

On to `C[Si]1(C)c2ccc(-c3ccc(-c4cccs4)s3)cc2C=Cc2cc(-c3ccc(-c4cccs4)s3)ccc21`, for which the photoluminescence quantum yield (in ClCCl) was determined as 0.1.

Take `COc1ccc(-c2nc(-c3ccccc3)c(-c3ccccc3)[nH]2)cc1`: the photoluminescence quantum yield (in CO) turned out to be 0.18.

The compound `CCCC1=Cc2nc1ccc1[nH]c(cc1CCC)c1nc(c(OC(C)=O)cc3[nH]c2cc3CCC)C(CCC)=C1` gave a photoluminescence quantum yield (in Cc1ccccc1) of 0.28.

As for `CN(C)c1ccc(C#Cc2cc3ccccc3oc2=O)cc1`, the photoluminescence quantum yield (in ClCCl) is 0.009.

As for `Cc1nn(-c2ccccc2)c(C2=NN(c3ccc(Br)cc3)[C@@H](c3ccccc3)[C@@H]2c2ccccc2)c1C#N`, the photoluminescence quantum yield (in C1CCCCC1) is 0.56; the photoluminescence quantum yield (in C1CCOC1) came out at 0.65; the photoluminescence quantum yield (in C1COCCO1) was determined as 0.6; the photoluminescence quantum yield (in CC#N) was 0.41; the photoluminescence quantum yield (in CCCCCCC) was 0.43; the photoluminescence quantum yield (in CCO) worked out at 0.49. For the same compound, the photoluminescence quantum yield reads like this: (in CN(C)C=O) 0.6; (in CO) 0.34; (in O) 0.18; (in OCCO) 0.45.

For `COC(=O)c1ccc(/C=C2\C=C(c3ccccc3)OC2=O)cc1`, for the setting “in C1COCCO1”, the photoluminescence quantum yield stood at 0.007.

`CCc1c(C(=O)OC)c(C(=O)OC)c2ccc(-c3ccccc3)nn12` gave a photoluminescence quantum yield (in CCCCCC) of 0.543.

Consider `CC1=CC(C)=[N+]2C1=C(c1ccccc1)c1c(C)cc(/C=C/c3ccccc3)n1[B-]2(F)F`, for which the photoluminescence quantum yield (in CC#N) stood at 0.7.

For `C(/C=C/c1ccc(N(c2ccccc2)c2ccccc2)cc1)=C\c1ccncc1`, the photoluminescence quantum yield runs as follows: (in C1COCCO1) 0.3; (in CC#N) 0.16; (in CCCCCCC) 0.4; (in CO) 0.02.

On to `c1ccc(-c2nc(-c3ccccc3)c(-c3ccccc3)o2)cc1`, for which, where the note is “in Cc1ccccc1”, the photoluminescence quantum yield came out at 0.36.

For the setting “in O”, `Cc1ccc2c(c1)n(C)c(-c1ccc(-c3ccc(-c4ccc(-c5n(C)c6cc(C)ccc6[n+]5C)cc4)cc3)cc1)[n+]2C` had a photoluminescence quantum yield of 0.68.

For `CN(C)c1ccc(C2=Cc3c4ccccc4cc[n+]3[B-](F)(F)O2)cc1`, the photoluminescence quantum yield (in C1CCOC1) was found to be 0.658; the photoluminescence quantum yield (in C1COCCO1) was found to be 0.863; the photoluminescence quantum yield (in CC1CCCCC1) is 0.979; the photoluminescence quantum yield (in CC#N) is 0.638; the photoluminescence quantum yield (in CCOC(C)=O) came to 0.663; the photoluminescence quantum yield (in CCOCC) is 0.848. Further, the photoluminescence quantum yield by setting is: (in CN(C)C=O) 0.561; (in CO) 0.499; (in COC(C)=O) 0.587; (in ClC(Cl)Cl) 0.743.

For the compound `C(#Cc1ccc(-n2c3ccccc3c3ccccc32)cc1)c1ccccc1`, the photoluminescence quantum yield (in ClCCl) worked out at 0.72.

Take `CN(C)c1cc(-c2ccccc2)cc2cc(C#Cc3ccncc3)ccc12`: the photoluminescence quantum yield (in ClCCl) stood at 0.72.

Under “in ClCCl”, `C(=C\c1ccncn1)/c1ccc(N2CCCCC2)cc1` showed a photoluminescence quantum yield of 0.13.
